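Cells were grown in 96-well plates and exposed to each compound for 48 hours at five concentrations; endpoints were interpolated linearly between bracketing concentrations, or set to the highest concentration if not reached. GI50 is the concentration that inhibits growth by half. TGI: total growth inhibition.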 Where only a bound is given, the exact number is not on record here.

Holding throughout (experiment): NCI-60 cell line screen, 48 h
Test [1] concerns CAKI-1 renal.
Test [2] has as its system CCRF-CEM leukemia.
Test [3] has as its system COLO 205 colon.
Test [4] has as its system EKVX NSCLC.
Test [5] deals with HOP-62 NSCLC.
In test [6] the test system is K-562 leukemia.
The test system of test [7] is M14 melanoma.
Test [8] concerns NCI-H226 lung.
For test [9], the system named is NCI-H460 lung.
Test [10] concerns OVCAR-4 ovarian.

For the compound `Cn1cc(-c2ccc(CNc3cc(-c4cnc5cc(OCCCN6CCCC6)ccn45)ncn3)cc2)cn1`, the GI50 in test [1] was 1.65 µM; in test [2], 2.72 µM; in test [3], 10.6 µM; in test [4], 3.01 µM; in test [5], 14.4 µM; in test [6], 2.62 µM. Moreover, the GI50 in test [7] was 1.74 µM; in [8] it was 2.03 µM; in [9] it was 1.77 µM; in test [10], 1.88 µM. In addition, the TGI in test [1] is 3.15 µM; in test [2], more than 100 µM; in test [3], 25.9 µM; in test [4] it was 9.59 µM; in test [5], 31.9 µM; in test [6], more than 100 µM. For the same compound, the TGI in test [7] worked out at 3.2 µM; in test [8], 4.81 µM; in test [9], 3.37 µM; in [10], 3.93 µM.

Consider `COc1ccc2c(c1)nc(N)c1c3cccnc3cn21`, for which the GI50 in test [1] is 0.0407 µM; in [2], 0.039 µM; in test [3], 0.0452 µM; in test [4] it was 2.91 µM; in [5], 0.273 µM; in test [6], 0.038 µM. Besides, the GI50 was 0.039 µM in [7], 0.737 µM in [8], 0.0923 µM in test [9] and 0.294 µM in [10]. The TGI in [1] was 16.3 µM; in test [2], more than 100 µM; in [3], 0.668 µM; in [4], more than 100 µM; in test [5], more than 78.9 µM; in test [6], 24.9 µM. Also, the TGI in test [7] was 27.9 µM; in test [8] it was 27 µM; in test [9], 1.77 µM; in [10], more than 100 µM.

`CC(C)OC(=O)c1ccc2[nH]c(O)c(C(=Nc3ccc(N(C)C(=O)CN4CCN(C)CC4)cc3)c3ccccc3)c2c1`: the GI50 in [1] was 0.0952 µM; in test [2], 0.371 µM; in [3], 0.285 µM; in test [4], 1.11 µM; in test [5], 0.471 µM; in test [6], 0.0435 µM. In addition, the GI50 in test [7] was 0.451 µM; in test [8], 1.1 µM; in [9], 0.448 µM; in test [10], 1.02 µM. For the same compound, the TGI amounted to 1.12 µM in [1]; 3.33 µM in [2]; 1.41 µM in test [3]; 2.49 µM in [4]; 2.4 µM in test [5]; 2.06 µM in test [6]. Besides, the TGI turned out to be 1.9 µM in test [7], 2.83 µM in test [8], 1.89 µM in [9] and 2.48 µM in test [10].

Take `Fc1ccc(Nc2nccc(-c3c(-c4ccc(C(F)(F)F)cc4)nn4ncccc34)n2)cc1F`: the GI50 in test [1], in test [2], in test [3], in test [4], in [5] and in test [6] was more than 25 µM each time. For the same compound, the GI50 in [7], in [8], in [9] and in test [10] was more than 25 µM each time. The TGI in [1], in test [2], in test [3], in [4], in [5] and in test [6] was more than 25 µM throughout. For the same compound, the TGI in [7], in test [8], in test [9] and in test [10] was more than 25 µM each time.

On to `CCN1C(=O)N(CC)C2C1NN=c1s/c(=C3\C(=O)N(C)c4ccccc43)c(=O)n12` (stereo not given), for which the GI50 is 0.448 µM in test [1]; 1.37 µM in [2]; 1.08 µM in test [3]; 3.25 µM in [4]; 2.25 µM in [5]; 0.352 µM in [6]. Further, the GI50 in test [7] is 0.803 µM; in test [8], 1.45 µM; in test [9] it was 1.29 µM; in [10] it was 8.51 µM. Moreover, the TGI in test [1] is 97.4 µM; in test [2] it was more than 100 µM; in test [3], 55.1 µM; in test [4], more than 100 µM; in test [5] it was more than 100 µM; in test [6], more than 100 µM. In addition, the TGI in [7] was more than 58.3 µM; in test [8] it was more than 100 µM; in test [9] it was more than 100 µM; in [10], more than 100 µM.

As for `C=CCc1ccc(O)c(-c2cc(C3Oc4c(-c5cc(CC=C)ccc5O)cc(O)cc4[C@@H]3CO)ccc2O)c1` (stereo not given in full), the TGI in [1] was more than 100 µM; in [2] it was 43.7 µM; in test [3] it was more than 100 µM; in [4], more than 100 µM; in test [5], 75 µM; in test [6] it was 34.1 µM. The TGI in [7], in test [8], in test [9] and in test [10] was more than 100 µM throughout.

On to `COC(=O)C(Cc1nc2ccc(Cl)cc2[nH]c1=O)C(=O)C(=O)Nc1ccccc1[N+](=O)[O-]` (stereo not given), for which the TGI in test [1], in test [2], in test [3], in [4], in test [5] and in [6] was more than 100 µM throughout. In addition, the TGI in test [7], in [8], in [9] and in [10] was more than 100 µM in each case.

As for `O=c1cccccc1NCCCCCCCCCNc1cccccc1=O`, the TGI was more than 100 µM in test [1]; more than 100 µM in [2]; 26.2 µM in test [3]; 32.7 µM in [4]; 35.7 µM in test [5]; 26.9 µM in test [6]. Further, the TGI is 25.7 µM in [7], 43.4 µM in test [8], 27.7 µM in test [9] and more than 100 µM in [10].

On to `COc1ccc(COCC(Cn2ccnc2)OCc2ccc(C(=O)O)cc2)cc1` (stereo not given), for which the TGI in test [1], in test [2], in test [3], in [4], in test [5] and in test [6] was more than 100 µM each time. The TGI in test [7], in test [8], in [9] and in [10] was more than 100 µM throughout.

(Values after PubChem BioAssay (NCI).)
